Results on twelve compounds are retold here after patent US9120777B2, “Heterocyclic compound” (Takeda Pharmaceutical Company Limited, priority 2013, dated 2015).

By inhibition is commonly meant the relative decrease from the control value, in per cent.

T1 sequence (P35346 whole entry): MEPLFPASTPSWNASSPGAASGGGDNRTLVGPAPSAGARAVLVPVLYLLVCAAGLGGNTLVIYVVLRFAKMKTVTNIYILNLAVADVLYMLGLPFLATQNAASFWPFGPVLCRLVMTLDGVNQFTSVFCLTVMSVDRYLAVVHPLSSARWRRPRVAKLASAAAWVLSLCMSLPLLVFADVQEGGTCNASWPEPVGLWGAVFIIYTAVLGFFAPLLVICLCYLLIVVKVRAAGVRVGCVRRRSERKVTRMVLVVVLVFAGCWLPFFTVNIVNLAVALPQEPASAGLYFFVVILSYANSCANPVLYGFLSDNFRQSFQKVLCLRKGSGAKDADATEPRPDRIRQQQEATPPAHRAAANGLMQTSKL

One assay concerns the target T1, human SSTR5 (Homo sapiens, UniProt P35346).
T1 construct: expressed in transfected cells
Briefly: Evaluation of human SSTR5 antagonist activity using intracellular cAMP concentration as index. Type of assay: cell-based. The settings on record: 1 uM test compound; CHO (dhfr-) cells stably expressing human SSTR5; 0.1 nM somatostatin 28 and 0.3 uM forskolin; HTRF cAMP; read-out: Inhibition rate against SSTR5 at 1 uM. As to the method:
Evaluation of Human SSTR5 Antagonist Activity Using Intracellular cAMP Concentration as Index
The intracellular cAMP concentration was measured using HTRF cAMP dynamic 2 kit (Cisbio Bioassays). Each test compound diluted with an assay buffer (HBSS (Invitrogen Corp.) containing 5 mM HEPES (pH 7.5) (Invitrogen Corp.), 0.1% fatty-acid free BSA (Sigma-Aldrich Corp.), and 500 u (“u” represents “micro”)M IBMX (Wako Pure Chemical Industries, Ltd.)) was added at a concentration of 2 uL/well to a 384-well white plate (Greiner Bio-One Co., Ltd.) to give the final concentration of 1 uM. A frozen stock of CHO (dhfr−) cells stably expressing the human SSTR5 gene (Accession No. NM_001053) was thawed in a thermostat bath of 37 C and suspended in a subculture medium (MEM alpha (Wako Pure Chemical Industries, Ltd.), 10% dialyzed serum (Gemini Bio-Products), and 50 ug/mL gentamicin (Invitrogen Corp.). After centrifugation of the cell suspension, the cells were resuspended in an assay buffer and added at a concentration of 2 uL/well (about 4,000 cells/well) to the plate. The compound and the cells were incubated for 15 minutes, and then, an assay buffer containing 0.1 nM (final concentration) somatostatin 28 (Toray Research Center) and 0.3 uM (final concentration) forskolin (Wako Pure Chemical Industries, Ltd.) was added thereto at a concentration of 2 uL/well, followed by incubation at room temperature for 30 minutes. cAMP-d2 and anti-cAMP-cryptate were each added thereto at a concentration of 3 uL/well. The plate was left standing at room temperature for 60 minutes. Then, the fluorescence resonance energy transfer (FRET) intensity was measured using Multi-label reader Envision (PerkinElmer). The FRET intensity of the wells supplemented with the test compound group was converted to a cAMP concentration using a calibration curve prepared from the FRET intensity of a well group containing an assay buffer supplemented with an arbitrary concentration of cAMP. The inhibitory activity of each compound was calculated according to the following expression: Inhibitory activity(%)=(C−B)/(A−B)×100 A: cAMP concentration calculated from the wells supplemented with 0.3 uM forskolin B: cAMP concentration calculated from the wells supplemented with 0.3 uM forskolin and 0.1 nM somatostatin 28 C: cAMP concentration calculated from the wells supplemented with 0.3 uM forskolin, 0.1 nM somatostatin 28, and 1 uM test compound
Turning to `CCOc1cc(C2CCC2)c(C2CC2)cc1CN1CCC(n2ccc(C(=O)O)cc2=O)CC1` [Example 1, 1-(1-(4-cyclobutyl-5-cyclopropyl-2-ethoxybenzyl)piperidin-4-yl)-2-oxo-1,2-dihydropyridine-4-carboxylic acid], the inhibition at 1 µM came to 84%.
For `CC(C)Oc1nc(-c2ccc(F)cc2)c(C2CC2)cc1CN1CCC(n2ccc(C(=O)O)cc2=O)CC1` [Example 2, 1-(1-((5-cyclopropyl-6-(4-fluorophenyl)-2-isopropoxypyridin-3-yl)methyl)piperidin-4-yl)-2-oxo-1,2-dihydropyridine-4-carboxylic acid], the inhibition at 1 µM came to 134%.
As to `CC(C)Oc1cc(-c2ccc(F)cc2)c(C2CC2)cc1CN1CCC(n2ccc(C(=O)O)cc2=O)CC1` [Example 3, 1-(1-((2-cyclopropyl-4′-fluoro-5-isopropoxybiphenyl-4-yl)methyl)piperidin-4-yl)-2-oxo-1,2-dihydropyridine-4-carboxylic acid], the inhibition at 1 µM is 116%.
Regarding `CC(C)Oc1cc(C2CC2)c(C2CC2)cc1CN1CCC(n2ccc(C(=O)O)cc2=O)CC1` [Example 4, 1-(1-(4,5-dicyclopropyl-2-isopropoxybenzyl)piperidin-4-yl)-2-oxo-1,2-dihydropyridine-4-carboxylic acid], the inhibition at 1 µM was 120%.
As to `CC(C)Oc1c(CN2CCC(n3ccc(C(=O)O)cc3=O)CC2)cc(C2CC2)c(-c2ccc(F)cc2F)c1Cl` [Example 5, 1-(1-((2-chloro-6-cyclopropyl-2′,4′-difluoro-3-isopropoxybiphenyl-4-yl)methyl)piperidin-4-yl)-2-oxo-1,2-dihydropyridine-4-carboxylic acid], the inhibition at 1 µM came out at 88%.
Same read-out and setting: the figure for `CCc1c(C(=O)O)ccn(C2CCN(Cc3cc(C4CC4)c(-c4ccc(F)cc4F)cc3OC(C)C)CC2)c1=O` [Example 6, 1-(1-((2-cyclopropyl-2′,4′-difluoro-5-isopropoxybiphenyl-4-yl)methyl)piperidin-4-yl)-3-ethyl-2-oxo-1,2-dihydropyridine-4-carboxylic acid] is 94%; for `CCc1c(C(=O)O)ccn(C2CCN(Cc3cc(C4CC4)c(-c4ccc(F)cc4F)c(F)c3OC(C)C)CC2)c1=O` [Example 7, 1-(1-((6-cyclopropyl-2,2′,4′-trifluoro-3-isopropoxybiphenyl-4-yl)methyl)piperidin-4-yl)-3-ethyl-2-oxo-1,2-dihydropyridine-4-carboxylic acid] it is 124%.
For the compound `CCc1c(C(=O)O)ccn(C2CCN(Cc3cc(C4CC4)c(-c4ccc(F)cc4)c(F)c3OC(C)C)CC2)c1=O` [Example 43, 1-(1-((6-cyclopropyl-2,4′-difluoro-3-isopropoxybiphenyl-4-yl)methyl)piperidin-4-yl)-3-ethyl-2-oxo-1,2-dihydropyridine-4-carboxylic acid], the inhibition at 1 µM was determined as 133%.
With `CCOc1c(CN2CCC(n3ccc(C(=O)O)c(CC)c3=O)CC2)cc(C2CC2)c(-c2ccc(F)cc2F)c1F` [Example 45, 1-(1-((6-cyclopropyl-3-ethoxy-2,2′,4′-trifluorobiphenyl-4-yl)methyl)piperidin-4-yl)-3-ethyl-2-oxo-1,2-dihydropyridine-4-carboxylic acid], the inhibition at 1 µM was determined as 98%.
For the compound `CCc1c(C(=O)O)ccn(C2CCN(Cc3cc(C4CC4)c(C4CC4)c(F)c3OC(C)C)CC2)c1=O` [Example 47, 1-(1-(4,5-dicyclopropyl-3-fluoro-2-isopropoxybenzyl)piperidin-4-yl)-3-ethyl-2-oxo-1,2-dihydropyridine-4-carboxylic acid], the inhibition at 1 µM was found to be 111%.
Regarding `CCc1c(C(=O)O)ccn(C2CCN(Cc3cc(C4CC4)c(-c4ccc(F)cc4)cc3OC(C)C)CC2)c1=O` [Example 51, 1-(1-((2-cyclopropyl-4′-fluoro-5-isopropoxybiphenyl-4-yl)methyl)piperidin-4-yl)-3-ethyl-2-oxo-1,2-dihydropyridine-4-carboxylic acid], the inhibition at 1 µM amounted to 89%.

Another assay deals with Female KK-Ay/Ta mice, a type 2 diabetes model. The experiment in a line: Antidiabetic effect in mice (glycated hemoglobin after 2 weeks of treatment). The format is in vivo. The settings on record: 1 mg/kg orally once a day for 2 weeks, n=8. The source says:
Antidiabetic Effect in Mice
Female KK-Ay/Ta mice (Clea Japan Inc.), a type 2 diabetes model, were used in this study. At the age of 7-week old, blood sample were collected from tail vein at 8:00 am, and animals were divided into separate groups (n=8) based on glycated hemoglobin (GHb), plasma glucose, insulin, triglyceride levels and body weight. Vehicle (0.5% (w/v) methylcellulose) or compounds (suspended in vehicle) were orally administered once a day for 2 weeks. After 2 weeks of treatment, GHb was determined by auto-analyzer HLC-723G8 (TOSOH, Japan).
As to `Cc1c(C(=O)O)ccn(C2CCN(Cc3cc(C4CC4)c(-c4ccc(F)cc4)c(F)c3OC(C)C)CC2)c1=O` [Example 49, 1-(1-((6-Cyclopropyl-2,4′-difluoro-3-isopropoxybiphenyl-4-yl)methyl)piperidin-4-yl)-3-methyl-2-oxo-1,2-dihydropyridine-4-carboxylic acid], the “average of delta GHb (%)” value is on record as −0.51%.
